A word on the EC50: it is the concentration needed to bring the measured effect to its halfway point.

Data on two compounds can be found in patent US6486136B1, “Combinations comprising VX478, zidovudine and/or 1592U89 for use in the treatment of HIV” (SmithKline Beecham Corporation, priority 1996, dated 2002).

For this assay, the system named is HIV-1 Strain IIIB. Kind of assay: Double combination dose response matrices in MT2-cells infected with HIV-1 Strain IIIB (MacSynergy II / Greco analysis). The class given is cell-based. Conditions: Greco model estimate; for EC50: MT2-cells, HIV-1 IIIB, medium with 10% fetal bovine serum plus α1 acid glycoprotein (1 mg/ml) and albumin (40 mg/ml). As for the experimental part: Triplicate in vitro dose response matrices were prepared using MT2-cells infected with HIV-1 Strain IIIB. In order to account for the effects of protein binding, tissue culture medium with 10% fetal bovine serum was supplemented with the human serum proteins α1, acid glycoprotein (1 mg/ml) and albumin (40 mg/ml). The 3-D drug interaction surface for 1592U89 and 141W94 was constructed using the program MacSynergy II. As analyzed relative to a Bliss Independence null reference model, this combination was synergistic with volumes of synergy exceeding 100 (99% confidence). Analysis of the data set with a fully parametric form of an equation for the quantitation of drug interaction developed by Greco et al. also indicated synergy. The parameters, with 95% confidence intervals are shown below: EC50 is the half maximal response concentration. “m” is the slope parameter. Alpha is the synergy parameter.

Like-named read-outs stand apart in the source and are kept apart here.

Take `CC(C)CN(C[C@@H](O)[C@H](Cc1ccccc1)NC(=O)O[C@H]1CCOC1)S(=O)(=O)c1ccc(N)cc1` (relative stereo) [141W94, 3S-[3R*(1R*,2S*)]-[3-[[(4-aminophenyl)sulphonyl](2-methylpropyl)-amino]-2-hydroxy-1-phenylmethyl)propyl]carbamic acid, tetrahydro-3-furanyl ester]: for the setting “Human immunodeficiency virus 1, read-out: EC50,141w”, the half-maximal effective concentration (EC50) was 0.394 µM. For the same compound, the “m141w (slope parameter)” value (same matrix) is given as 2.20.

For `Nc1nc(NC2CC2)c2ncn([C@H]3C=C[C@@H](CO)C3)c2n1` (relative stereo) [1592U89, (1S,4R)-cis-4-[2-amino-6-(cyclopropylamino)-9H-purin-9-yl]-2-cyclopentene-1-methanol], the concentration giving a half-maximal response (EC50) (read-out: EC50,1592u) is 0.626 µM. Also, the “m1592u (slope parameter)” value (same matrix) is on record as 1.60.
